From ChEMBL document CHEMBL1201862, “PubChem BioAssay data set” (2004)
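In this assay, cells in 96-well plates receive the compound at five concentrations for 48 hours. Endpoints are linearly interpolated between the surrounding concentrations. GI50: concentration for 50% inhibition of growth.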 Active and inactive are the calls of the source. No stated cut-off is given here; in the data, active = GI50 up to about 1.1 µM and inactive = higher.

What was measured:
Assay in all cases: NCI anticancer screen, dose series, 48 h
A498 = system: A498
A549 = system: A549
BT-549 = system: BT-549
CAKI-1 = system: CAKI-1
CCRF-CEM = system: CCRF-CEM
COLO 205 = system: COLO 205
EKVX = system: EKVX
HCC 2998 = system: HCC 2998
HCT-15 = system: HCT-15
HL-60 = system: HL-60
HOP-62 = system: HOP-62
HOP-92 = system: HOP-92
HT-29 = system: HT-29
Hs-578T = system: Hs-578T
IGROV-1 = system: IGROV-1
K562 = system: K562
KM12 = system: KM12
M14 = system: M14
MCF7 = system: MCF7
MDA-MB-231 = system: MDA-MB-231
MDA-MB-435 = system: MDA-MB-435
MOLT-4 = system: MOLT-4
Malme-3M = system: Malme-3M
NCI-H23 = system: NCI-H23
NCI-H460 = system: NCI-H460
NCI-H522 = system: NCI-H522
NCI/ADR-RES = system: NCI/ADR-RES
OVCAR-3 = system: OVCAR-3
OVCAR-4 = system: OVCAR-4
OVCAR-5 = system: OVCAR-5
OVCAR-8 = system: OVCAR-8
PC-3 = system: PC-3
RPMI-8226 = system: RPMI-8226
RXF 393 = system: RXF 393
SF-268 = system: SF-268
SF-295 = system: SF-295
SF-539 = system: SF-539
SK-MEL-28 = system: SK-MEL-28
SK-MEL-2 = system: SK-MEL-2
SK-MEL-5 = system: SK-MEL-5
SK-OV-3 = system: SK-OV-3
SNB-19 = system: SNB-19
SR = system: SR
SW-620 = system: SW-620
TK-10 = system: TK-10
U-251 = system: U-251
UACC-257 = system: UACC-257
UACC-62 = system: UACC-62
UO-31 = system: UO-31
786-0 = system: 786-0
DU-145 = system: DU-145
HCT-116 = system: HCT-116
LOX IMVI = system: LOX IMVI
NCI-H226 = system: NCI-H226
SN12C = system: SN12C
SNB-75 = system: SNB-75

CC(=O)C1CC[C@@H]2[C@H](CC[C@]3(C)[C@@H](O)CC[C@@H]23)[C@H]1C(=O)O (stereo partly specified)
GI50 (A498): > 100 µM (inactive) | GI50 (A549): > 100 µM (inactive) | GI50 (BT-549): > 100 µM (inactive) | GI50 (CAKI-1): > 100 µM (inactive) | GI50 (CCRF-CEM): > 100 µM (inactive) | GI50 (COLO 205): > 100 µM (inactive) | GI50 (EKVX): > 100 µM (inactive) | GI50 (HCC 2998): > 100 µM (inactive) | GI50 (HCT-15): > 100 µM | GI50 (HL-60): > 100 µM (inactive) | GI50 (HOP-62): > 100 µM (inactive) | GI50 (HOP-92): > 100 µM (inactive) | GI50 (HT-29): > 100 µM (inactive) | GI50 (Hs-578T): 74.1 µM (inactive) | GI50 (IGROV-1): > 100 µM (inactive) | GI50 (K562): > 100 µM (inactive) | GI50 (KM12): > 100 µM (inactive) | GI50 (M14): > 100 µM (inactive) | GI50 (MCF7): > 100 µM (inactive) | GI50 (MDA-MB-231): > 100 µM (inactive) | GI50 (MDA-MB-435): > 100 µM (inactive) | GI50 (MOLT-4): > 100 µM (inactive) | GI50 (Malme-3M): > 100 µM (inactive) | GI50 (NCI-H23): > 100 µM (inactive) | GI50 (NCI-H460): > 100 µM (inactive) | GI50 (NCI-H522): > 100 µM (inactive) | GI50 (NCI/ADR-RES): > 100 µM (inactive) | GI50 (OVCAR-3): > 100 µM (inactive) | GI50 (OVCAR-4): > 100 µM (inactive) | GI50 (OVCAR-5): > 100 µM (inactive) | GI50 (OVCAR-8): > 100 µM (inactive) | GI50 (PC-3): > 100 µM (inactive) | GI50 (RPMI-8226): > 100 µM (inactive) | GI50 (RXF 393): > 100 µM (inactive) | GI50 (SF-268): > 100 µM (inactive) | GI50 (SF-295): > 100 µM (inactive) | GI50 (SF-539): > 100 µM (inactive) | GI50 (SK-MEL-28): > 100 µM (inactive) | GI50 (SK-MEL-2): > 100 µM (inactive) | GI50 (SK-MEL-5): > 100 µM (inactive) | GI50 (SK-OV-3): > 100 µM (inactive) | GI50 (SNB-19): > 100 µM (inactive) | GI50 (SR): > 100 µM (inactive) | GI50 (SW-620): > 100 µM (inactive) | GI50 (TK-10): > 100 µM (inactive) | GI50 (U-251): > 100 µM (inactive) | GI50 (UACC-257): > 100 µM (inactive) | GI50 (UACC-62): > 100 µM (inactive) | GI50 (UO-31): > 100 µM (inactive)

Cn1c2ccccc2c2nc3ccccc3c(Cl)c21
GI50 (786-0): > 100 µM (inactive) | GI50 (A498): > 100 µM (inactive) | GI50 (A549): > 100 µM (inactive) | GI50 (BT-549): > 100 µM (inactive) | GI50 (CAKI-1): > 100 µM (inactive) | GI50 (CCRF-CEM): > 100 µM (inactive) | GI50 (COLO 205): > 100 µM (inactive) | GI50 (DU-145): > 100 µM (inactive) | GI50 (HCT-116): > 100 µM (inactive) | GI50 (HCT-15): > 100 µM | GI50 (HL-60): > 100 µM (inactive) | GI50 (HOP-62): > 100 µM (inactive) | GI50 (HOP-92): > 10 µM (inactive) | GI50 (HT-29): > 100 µM (inactive) | GI50 (Hs-578T): > 100 µM (inactive) | GI50 (IGROV-1): > 100 µM (inactive) | GI50 (K562): > 100 µM (inactive) | GI50 (KM12): > 100 µM (inactive) | GI50 (LOX IMVI): > 100 µM (inactive) | GI50 (M14): > 100 µM (inactive) | GI50 (MCF7): > 100 µM (inactive) | GI50 (MDA-MB-231): > 100 µM (inactive) | GI50 (MDA-MB-435): > 100 µM (inactive) | GI50 (MOLT-4): > 100 µM (inactive) | GI50 (Malme-3M): > 100 µM (inactive) | GI50 (NCI-H226): > 100 µM (inactive) | GI50 (NCI-H23): 36.2 µM (inactive) | GI50 (NCI-H460): > 100 µM (inactive) | GI50 (NCI-H522): > 100 µM (inactive) | GI50 (NCI/ADR-RES): > 100 µM (inactive) | GI50 (OVCAR-3): > 100 µM (inactive) | GI50 (OVCAR-4): > 100 µM (inactive) | GI50 (OVCAR-5): 49 µM (inactive) | GI50 (OVCAR-8): > 100 µM (inactive) | GI50 (PC-3): > 100 µM (inactive) | GI50 (RPMI-8226): > 100 µM (inactive) | GI50 (RXF 393): 37.9 µM (inactive) | GI50 (SF-268): > 100 µM (inactive) | GI50 (SF-295): > 100 µM (inactive) | GI50 (SF-539): > 100 µM (inactive) | GI50 (SK-MEL-28): > 100 µM (inactive) | GI50 (SK-MEL-2): > 100 µM (inactive) | GI50 (SK-OV-3): 35.9 µM (inactive) | GI50 (SN12C): > 100 µM (inactive) | GI50 (SNB-19): > 100 µM (inactive) | GI50 (SNB-75): 23.4 µM (inactive) | GI50 (SR): > 100 µM (inactive) | GI50 (SW-620): > 100 µM (inactive) | GI50 (TK-10): > 100 µM (inactive) | GI50 (U-251): 55.8 µM (inactive) | GI50 (UACC-257): > 100 µM (inactive) | GI50 (UACC-62): 92.5 µM (inactive)
